Test results: article PMC4942689, “Deciphering the function of the CNGB1b subunit in olfactory CNG channels” (Scientific Reports, 2016)

How the values were obtained:
[1] = biological target: T1, CNGA2:A4 channels (Rattus norvegicus, UniProt Q00195+Q64359); assay: Concentration-activation relationship, inside-out patch-clamp; assay type: biochemical
T1 construct: expressed in transfected cells; host or cells: Xenopus laevis oocytes (cRNA injection), excised inside-out patches
Method: (§1) Patch-clamp experiments were performed using an Axopatch 200B amplifier (Molecular Devices LLC, CA, U.S.A.) in the inside-out configuration. The patch pipettes for recording of macroscopic currents were pulled from borosilicate glass tubing (outer diameter 2.0 mm, inner diameter 1.0 mm; Hilgenberg GmbH, Germany). […] The patches were formed as pushed inside-out patches. […] Cyclic nucleotide concentration jumps were performed using a double-barreled glass pipette mounted on a piezo-driven device. Intracellular (bath) and extracellular (pipette) solutions contained (mM) 150 KCl, 1 EGTA, 5 Hepes, pH = 7.4 with KOH. […] Currents in the absence of the cyclic nucleotide were subtracted. All patches included in this study were first tested for channel expression in the presence of a saturating ligand concentration. Only patches with large current, i.e. a large number of channels, were included in our statistics. The currents were measured at +10 mV or, if mentioned, at +100 mV. Fits of equations to data points were performed with the 8.1G® software (OriginLab Corporation, Northampton, U.S.A.). Concentration-activation relationships were obtained by relating the actual current amplitude, I, to the maximum current amplitude elicited by a saturating concentration of ligand, Imax, and plotting this ratio as function of the ligand concentration, x. The concentration-activation data were fitted using the Hill equation where EC50 is the ligand concentration of half maximum effect and H the Hill coefficient.

[2] = biological target: T2, CNGA2:B1b channels (Rattus norvegicus, UniProt A0A8I5ZN27+Q00195); assay: as above; assay type: biochemical
T2 construct: expressed in transfected cells; host or cells: Xenopus laevis oocytes (cRNA injection), excised inside-out patches
T2 sequence (Q00195 whole entry): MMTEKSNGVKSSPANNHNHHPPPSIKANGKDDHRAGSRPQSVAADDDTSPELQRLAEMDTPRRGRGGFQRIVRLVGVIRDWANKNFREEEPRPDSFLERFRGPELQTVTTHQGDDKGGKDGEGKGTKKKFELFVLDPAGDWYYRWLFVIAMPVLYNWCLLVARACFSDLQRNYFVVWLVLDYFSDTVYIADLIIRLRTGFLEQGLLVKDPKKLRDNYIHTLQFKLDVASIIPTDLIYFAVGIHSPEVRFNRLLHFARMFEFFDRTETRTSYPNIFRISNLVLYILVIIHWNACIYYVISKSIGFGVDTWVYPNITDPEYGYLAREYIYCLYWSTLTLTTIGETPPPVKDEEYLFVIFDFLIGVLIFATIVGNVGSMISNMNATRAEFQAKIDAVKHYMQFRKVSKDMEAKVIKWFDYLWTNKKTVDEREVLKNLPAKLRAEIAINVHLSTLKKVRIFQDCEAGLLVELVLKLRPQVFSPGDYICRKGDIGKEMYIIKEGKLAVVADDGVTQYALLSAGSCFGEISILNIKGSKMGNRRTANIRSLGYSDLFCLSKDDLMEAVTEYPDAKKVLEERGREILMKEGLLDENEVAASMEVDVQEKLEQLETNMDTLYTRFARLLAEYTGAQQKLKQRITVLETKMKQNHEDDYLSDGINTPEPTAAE
T2 sequence (A0A8I5ZN27 1-858 isoform A0A8I5ZN27-2): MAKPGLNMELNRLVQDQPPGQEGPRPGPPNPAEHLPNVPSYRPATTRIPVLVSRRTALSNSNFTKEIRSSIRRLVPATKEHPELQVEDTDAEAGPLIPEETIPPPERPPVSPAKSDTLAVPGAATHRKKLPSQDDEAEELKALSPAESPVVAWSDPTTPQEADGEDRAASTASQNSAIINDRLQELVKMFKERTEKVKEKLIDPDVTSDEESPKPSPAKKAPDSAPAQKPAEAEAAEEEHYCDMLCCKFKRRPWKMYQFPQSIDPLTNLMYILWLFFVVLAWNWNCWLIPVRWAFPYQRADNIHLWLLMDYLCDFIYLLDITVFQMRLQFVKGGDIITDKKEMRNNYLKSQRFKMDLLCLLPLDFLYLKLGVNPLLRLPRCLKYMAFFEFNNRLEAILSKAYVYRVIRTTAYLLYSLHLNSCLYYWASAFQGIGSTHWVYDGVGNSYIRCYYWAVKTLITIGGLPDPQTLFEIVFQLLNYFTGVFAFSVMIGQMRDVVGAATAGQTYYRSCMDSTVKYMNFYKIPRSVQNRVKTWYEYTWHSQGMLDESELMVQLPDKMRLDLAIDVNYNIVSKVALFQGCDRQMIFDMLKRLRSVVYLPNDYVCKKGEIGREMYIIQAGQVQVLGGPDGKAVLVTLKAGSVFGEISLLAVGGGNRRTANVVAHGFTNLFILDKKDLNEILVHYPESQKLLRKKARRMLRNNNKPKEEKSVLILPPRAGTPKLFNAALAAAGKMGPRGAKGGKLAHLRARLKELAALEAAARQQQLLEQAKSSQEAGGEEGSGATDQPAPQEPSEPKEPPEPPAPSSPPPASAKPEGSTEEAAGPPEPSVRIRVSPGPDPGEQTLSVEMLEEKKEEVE
Method: as §1

T1 sequence (Q00195 whole entry): as the sequence (Q00195 whole entry) above
T1 sequence (Q64359 whole entry): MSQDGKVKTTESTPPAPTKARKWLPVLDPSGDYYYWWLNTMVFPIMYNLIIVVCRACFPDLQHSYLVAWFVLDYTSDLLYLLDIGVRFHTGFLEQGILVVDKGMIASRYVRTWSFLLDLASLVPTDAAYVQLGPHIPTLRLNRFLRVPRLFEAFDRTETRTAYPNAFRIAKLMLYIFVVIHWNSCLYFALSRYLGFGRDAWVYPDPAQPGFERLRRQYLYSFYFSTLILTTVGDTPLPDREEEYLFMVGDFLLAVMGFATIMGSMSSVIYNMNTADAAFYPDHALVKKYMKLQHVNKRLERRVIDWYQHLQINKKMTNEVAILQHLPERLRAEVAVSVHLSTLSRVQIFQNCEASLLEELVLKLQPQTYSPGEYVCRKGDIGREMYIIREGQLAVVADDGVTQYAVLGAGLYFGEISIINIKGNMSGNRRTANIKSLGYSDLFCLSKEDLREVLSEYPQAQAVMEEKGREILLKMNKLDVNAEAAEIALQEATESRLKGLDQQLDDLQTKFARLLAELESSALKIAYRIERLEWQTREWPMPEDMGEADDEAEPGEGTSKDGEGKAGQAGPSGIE

Nc1nc2c(ncn2[C@@H]2O[C@@H]3COP(=O)(O)O[C@H]3[C@H]2O)c(=O)[nH]1 [cGMP]
EC50 ([1]; Equation 1): 1280 nM | H ([1]; Hill coefficient): 1.7 | EC50 ([2]; Equation 1): 1900 nM | H ([2]; Hill coefficient): 2.0
